The values that follow come from patent publication US11180483B2, “Substituted reverse pyrimidine Bmi-1 inhibitors” (PTC Therapeutics, Inc., priority 2012, dated 2021).

For one series, the system named is Bmi-1. Nature of the series: Sandwich ELISA Assay (Bmi-1 ELISA) in HT-1080 cells. The format is cell-based. In a few lines:
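HT-1080 cells exposed to compound in 0.5% final DMSO for 40-48 h at 37 °C, then lysed. Bmi-1 was quantified by sandwich ELISA: mouse monoclonal capture, rabbit anti-Bmi-1 detection, HRP anti-rabbit and TMB. Read at OD450 (OD570 reference) against a recombinant GST-Bmi-1 standard curve (0-8000 pg/mL).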
What is called EC50 is the midpoint of the concentration-response curve. Low readings indicate an effect from little substance, high ones a need for much substance. Regarding `Nc1cc(Nc2ccc(C(F)(F)F)cc2)nc(-c2c(C(F)(F)F)nc3ccccn23)n1` [Cpd 66, 2-[2-(trifluoromethyl)imidazo[1,2-a]pyridin-3-yl]-N-[4-(trifluoromethyl)phenyl]pyrimidine-4,6-diamine], the EC50 lay within 10 to 100 nM.

For the compound `Nc1cc(Nc2ccc(OC(F)(F)F)cc2)nc(-c2c(C(F)(F)F)nc3ccccn23)n1` [Cpd 67, N-[4-(trifluoromethoxy)phenyl]-2-[2-(trifluoromethyl]imidazo[1,2-a]pyridin-3-yl]pyrimidine-4,6-diamine], the EC50 is 100 to 3000 nM.

Regarding `Cc1nc2ccc(F)cn2c1-c1nc(N)cc(Nc2ccc(OC(F)F)cc2)n1` [Cpd 69, N-[4-(difluoromethoxy)phenyl]-2-(6-fluoro-2-methylimidazo[1,2-a]pyridin-3-yl)pyrimidine-4,6-diamine], the EC50 lay within 10 to 100 nM.

The compound `Cc1nn(C)c(C)c1-c1nc(N)cc(Nc2ccc(C(F)(F)F)cc2)n1` [Cpd 70, N-[4-(trifluoromethyl)phenyl]-2-(1,3,5-trimethyl-1H-pyrazol-4-yl)pyrimidine-4,6-diamine] yielded an EC50 of 100 to 3000 nM.

`Cc1nc2ccc(F)cc2n1-c1nc(N)cc(Nc2ccc(OC(F)F)cc2)n1` [Cpd 72, N-[4-(difluoromethoxy)phenyl]-2-(6-fluoro-2-methyl-1H-benzimidazol-1-yl)pyrimidine-4,6-diamine] registered an EC50 of 10 to 100 nM.

The compound `Nc1cc(Nc2ccc(OC(F)F)c(F)c2)nc(-c2c(C3CC3)nc3ccc(F)cn23)n1` [Cpd 75, 2-(2-cyclopropyl-6-fluoroimidazo[1,2-a]pyridin-3-yl)-N-[4-(difluoromethoxy)-3-fluorophenyl]pyrimidine-4,6-diamine] displayed an EC50 of 100 to 3000 nM.

Turning to `COc1ccc2nc(C)n(-c3nc(N)c(F)c(Nc4ccc(C)cc4)n3)c2c1` [Cpd 248, 5-fluoro-2-(6-methoxy-2-methyl-1H-benzimidazol-1-yl)-N-(4-methylphenyl)pyrimidine-4,6-diamine], the EC50 lay in the range of 10 to 100 nM.

`COc1ccc(Nc2nc(-n3c(C)nc4ccc(OC)cc43)nc(N)c2F)cc1` [Cpd 249, 5-fluoro-2-(6-methoxy-2-methyl-1H-benzimidazol-1-yl)-N-(4-methoxyphenyl)pyrimidine-4,6-diamine] returned an EC50 of 10 to 100 nM.

In the case of `COc1ccc2nc(C)n(-c3nc(N)c(F)c(Nc4ccc5c(c4)OCO5)n3)c2c1` [Cpd 250, N-(1,3-benzodioxol-5-yl)-5-fluoro-2-(6-methoxy-2-methyl-1H-benzimidazol-1-yl)pyrimidine-4,6-diamine], the EC50 fell in the range of 10 to 100 nM.

For the compound `Cc1ccc(Nc2nc(-n3c(C)nc4cc([N+](=O)[O-])ccc43)nc(N)c2F)cc1` [Cpd 254, 5-fluoro-2-(2-methyl-5-nitro-1H-benzimidazol-1-yl)-N-(4-methylphenyl)pyrimidine-4,6-diamine], the EC50 is 10 to 100 nM.

`COc1ccc(Nc2nc(-n3c(C)nc4cc([N+](=O)[O-])ccc43)nc(N)c2F)cc1` [Cpd 255, 5-fluoro-N-(4-methoxyphenyl)-2-(2-methyl-5-nitro-1H-benzimidazol-1-yl)pyrimidine-4,6-diamine] yielded an EC50 of 100 to 3000 nM.

In turn, `COc1ccc(Nc2nc(-n3c(C)nc4ccc(N)cc43)nc(N)c2F)cc1` [Cpd 256, 2-(6-amino-2-methyl-1H-benzimidazol-1-yl)-5-fluoro-N-(4-methoxyphenyl)pyrimidine-4,6-diamine] displayed an EC50 of 10 to 100 nM.

In the case of `Cc1nc2ccc(N)cc2n1-c1nc(N)c(F)c(Nc2ccc(OC(F)F)cc2)n1` [Cpd 257, 2-(6-amino-2-methyl-1H-benzimidazol-1-yl)-N-[4-(difluoromethoxy)phenyl]-5-fluoropyrimidine-4,6-diamine], the EC50 lay within 10 to 100 nM.

In the case of `Cc1ccc(Nc2nc(-n3c(C)nc4ccc(N)cc43)nc(N)c2F)cc1` [Cpd 258, 2-(6-amino-2-methyl-1H-benzimidazol-1-yl)-5-fluoro-N-(4-methylphenyl)pyrimidine-4,6-diamine], the EC50 was in the range of 1 to 10 nM.

For `Cc1nc2cc(F)ccc2n1-c1nc(N)c(F)c(Nc2ccc(Cl)cc2)n1` [Cpd 259, N-(4-chlorophenyl)-5-fluoro-2-(5-fluoro-2-methyl-1H-benzimidazol-1-yl)pyrimidine-4,6-diamine], the EC50 lay within 100 to 3000 nM.

With `Cc1nc2cc(F)ccc2n1-c1nc(N)c(F)c(Nc2ccc(Cl)c(F)c2)n1` [Cpd 260, N-(4-chloro-3-fluorophenyl)-5-fluoro-2-(5-fluoro-2-methyl-1H-benzimidazol-1-yl)pyrimidine-4,6-diamine], the EC50 fell in the range of 100 to 3000 nM.

As to `Cc1nc2ccccc2n1-c1nc(N)c(F)c(Nc2ccc(Cl)c(F)c2)n1` [Cpd 261, N-(4-chloro-3-fluorophenyl)-5-fluoro-2-(2-methyl-1H-benzimidazol-1-yl)pyrimidine-4,6-diamine], the EC50 was 10 to 100 nM.

For `Cc1nc2ccc(F)cc2n1-c1nc(N)c(F)c(Nc2ccc(Cl)c(F)c2)n1` [Cpd 262, N-(4-chloro-3-fluorophenyl)-5-fluoro-2-(6-fluoro-2-methyl-1H-benzimidazol-1-yl)pyrimidine-4,6-diamine], the EC50 was 10 to 100 nM.

Regarding `Cc1ccc(Nc2cc(N)nc(-n3c(C)nc4ccc(F)cc43)n2)cc1` [Cpd 264, 2-(6-fluoro-2-methyl-1H-benzimidazol-1-yl)-N-(4-methylphenyl)pyrimidine-4,6-diamine], the EC50 is 1 to 10 nM.

In turn, `COc1ccc(Nc2cc(N)nc(-n3c(C)nc4ccc(F)cc43)n2)cc1` [Cpd 265, 2-(6-fluoro-2-methyl-1H-benzimidazol-1-yl)-N-(4-methoxyphenyl)pyrimidine-4,6-diamine] had an EC50 of 1 to 10 nM.

The compound `CCc1nc2ccccc2n1-c1nc(N)c(F)c(Nc2ccc(C)cc2)n1` [Cpd 270, 2-(2-ethyl-1H-benzimidazol-1-yl)-5-fluoro-N-(4-methylphenyl)pyrimidine-4,6-diamine] displayed an EC50 of 1 to 10 nM.

With `CCc1nc2ccccc2n1-c1nc(N)c(F)c(Nc2ccc(OC)cc2)n1` [Cpd 271, 2-(2-ethyl-1H-benzimidazol-1-yl)-5-fluoro-N-(4-methoxyphenyl)pyrimidine-4,6-diamine], the EC50 was in the range of 1 to 10 nM.

`CCc1nc2ccccc2n1-c1nc(N)c(F)c(Nc2ccc(OC(F)(F)F)cc2)n1` [Cpd 272, 2-(2-ethyl-1H-benzimidazol-1-yl)-5-fluoro-N-[4-(trifluoromethoxy)phenyl]pyrimidine-4,6-diamine] showed an EC50 of 10 to 100 nM.

Compound `CCc1nc2ccccc2n1-c1nc(N)c(F)c(Nc2ccc3c(c2)OCO3)n1` [Cpd 273, N-(1,3-benzodioxol-5-yl)-2-(2-ethyl-1H-benzimidazol-1-yl)-5-fluoropyrimidine-4,6-diamine] gave an EC50 of 1 to 10 nM.

Take `CCc1nc2ccccc2n1-c1nc(N)c(F)c(Nc2ccc(Cl)cc2)n1` [Cpd 274, N-(4-chlorophenyl)-2-(2-ethyl-1H-benzimidazol-1-yl)-5-fluoropyrimidine-4,6-diamine]: the EC50 fell in the range of 10 to 100 nM.

In turn, `CCc1nc2ccccc2n1-c1nc(N)c(F)c(Nc2ccc(Cl)c(F)c2)n1` [Cpd 275, N-(4-chloro-3-fluorophenyl)-2-(2-ethyl-1H-benzimidazol-1-yl)-5-fluoropyrimidine-4,6-diamine] had an EC50 of 10 to 100 nM.

`Cc1ccc(Nc2nc(-n3c(C4CC4)nc4ccccc43)nc(N)c2F)cc1` [Cpd 276, 2-(2-cyclopropyl-1H-benzimidazol-1-yl)-5-fluoro-N-(4-methylphenyl)pyrimidine-4,6-diamine] had an EC50 of 1 to 10 nM.

On to `COc1ccc(Nc2nc(-n3c(C4CC4)nc4ccccc43)nc(N)c2F)cc1` [Cpd 277, 2-(2-cyclopropyl-1H-benzimidazol-1-yl)-5-fluoro-N-(4-methoxyphenyl)pyrimidine-4,6-diamine], for which the EC50 was at most 1 nM.

`Nc1nc(-n2c(C3CC3)nc3ccccc32)nc(Nc2ccc(OC(F)(F)F)cc2)c1F` [Cpd 278, 2-(2-cyclopropyl-1H-benzimidazol-1-yl)-5-fluoro-N-[4-(trifluoromethoxy)phenyl]pyrimidine-4,6-diamine] came in with an EC50 of 100 to 3000 nM.

`Nc1nc(-n2c(C3CC3)nc3ccccc32)nc(Nc2ccc(Cl)cc2)c1F` [Cpd 279, N-(4-chlorophenyl)-2-(2-cyclopropyl-1H-benzimidazol-1-yl)-5-fluoropyrimidine-4,6-diamine] had an EC50 of 10 to 100 nM.

On to `Nc1nc(-n2c(C3CC3)nc3ccccc32)nc(Nc2ccc(Cl)c(F)c2)c1F` [Cpd 280, N-(4-chloro-3-fluorophenyl)-2-(2-cyclopropyl-1H-benzimidazol-1-yl)-5-fluoropyrimidine-4,6-diamine], for which the EC50 was in the range of 10 to 100 nM.

The compound `Cc1ccc(Nc2nc(-n3c(C)nc4cc(F)ccc43)nc(N)c2F)cc1` [Cpd 281, 5-fluoro-2-(5-fluoro-2-methyl-1H-benzimidazol-1-yl)-N-(4-methylphenyl)pyrimidine-4,6-diamine] displayed an EC50 of 1 to 10 nM.

`COc1ccc(Nc2nc(-n3c(C)nc4cc(F)ccc43)nc(N)c2F)cc1` [Cpd 282, 5-fluoro-2-(5-fluoro-2-methyl-1H-benzimidazol-1-yl)-N-(4-methoxyphenyl)pyrimidine-4,6-diamine] returned an EC50 of 1 to 10 nM.

`Cc1nc2cc(F)ccc2n1-c1nc(N)c(F)c(Nc2ccc(OC(F)(F)F)cc2)n1` [Cpd 283, 5-fluoro-2-(5-fluoro-2-methyl-1H-benzimidazol-1-yl)-N-[4-(trifluoromethoxy)phenyl]pyrimidine-4,6-diamine] returned an EC50 of 100 to 3000 nM.

Compound `Cc1nc2ccc(N)cc2n1-c1nc(N)c(F)c(Nc2ccc(C(F)(F)F)cc2)n1` [Cpd 284, 2-(6-amino-2-methyl-1H-benzimidazol-1-yl)-5-fluoro-N-[4-(trifluoromethyl)phenyl]pyrimidine-4,6-diamine] showed an EC50 of 10 to 100 nM.

System in the next series: not given
Experiment: not given
What is called melting point is the temperature, or range, at which the solid turns liquid. Take `Nc1cc(Nc2ccc(C(F)(F)F)cc2)nc(-c2c(C(F)(F)F)nc3ccccn23)n1` [Cpd 66, 2-[2-(trifluoromethyl)imidazo[1,2-a]pyridin-3-yl]-N-[4-(trifluoromethyl)phenyl]pyrimidine-4,6-diamine]: the melting point is 203 to 205 °C.

Take `Nc1cc(Nc2ccc(OC(F)(F)F)cc2)nc(-c2c(C(F)(F)F)nc3ccccn23)n1` [Cpd 67, N-[4-(trifluoromethoxy)phenyl]-2-[2-(trifluoromethyl]imidazo[1,2-a]pyridin-3-yl]pyrimidine-4,6-diamine]: the melting point fell in the range of 199 to 202 °C.

For `Cc1nc2ccc(F)cn2c1-c1nc(N)cc(Nc2ccc(OC(F)F)cc2)n1` [Cpd 69, N-[4-(difluoromethoxy)phenyl]-2-(6-fluoro-2-methylimidazo[1,2-a]pyridin-3-yl)pyrimidine-4,6-diamine], the melting point fell in the range of 136 to 138 °C.

Consider `Cc1nn(C)c(C)c1-c1nc(N)cc(Nc2ccc(C(F)(F)F)cc2)n1` [Cpd 70, N-[4-(trifluoromethyl)phenyl]-2-(1,3,5-trimethyl-1H-pyrazol-4-yl)pyrimidine-4,6-diamine], for which the melting point lay within 270 to 271 °C.

`Cc1nc2ccc(F)cc2n1-c1nc(N)cc(Nc2ccc(OC(F)F)cc2)n1` [Cpd 72, N-[4-(difluoromethoxy)phenyl]-2-(6-fluoro-2-methyl-1H-benzimidazol-1-yl)pyrimidine-4,6-diamine] showed a melting point of 168 to 170 °C.

Compound `Nc1cc(Nc2ccc(OC(F)F)c(F)c2)nc(-c2c(C3CC3)nc3ccc(F)cn23)n1` [Cpd 75, 2-(2-cyclopropyl-6-fluoroimidazo[1,2-a]pyridin-3-yl)-N-[4-(difluoromethoxy)-3-fluorophenyl]pyrimidine-4,6-diamine] came in with a melting point of 198 to 200 °C.
